Experimental data reported in publication PMC9030254, “Target Hopping from Protein Kinases to PXR: Identification of Small-Molecule Protein Kinase Inhibitors as Selective Modulators of Pregnane X Receptor from TüKIC Library” (Cells, 2022).

How the values were obtained:
Experiment in all cases: Kinase profiling
Type in all cases: biochemical
CAMK4 = molecular target: T1, CAMK4 (Homo sapiens, UniProt Q16566)
T1 construct: purchased ProQinase (Freiburg, Germany)
T1 sequence (Q16566 1-473): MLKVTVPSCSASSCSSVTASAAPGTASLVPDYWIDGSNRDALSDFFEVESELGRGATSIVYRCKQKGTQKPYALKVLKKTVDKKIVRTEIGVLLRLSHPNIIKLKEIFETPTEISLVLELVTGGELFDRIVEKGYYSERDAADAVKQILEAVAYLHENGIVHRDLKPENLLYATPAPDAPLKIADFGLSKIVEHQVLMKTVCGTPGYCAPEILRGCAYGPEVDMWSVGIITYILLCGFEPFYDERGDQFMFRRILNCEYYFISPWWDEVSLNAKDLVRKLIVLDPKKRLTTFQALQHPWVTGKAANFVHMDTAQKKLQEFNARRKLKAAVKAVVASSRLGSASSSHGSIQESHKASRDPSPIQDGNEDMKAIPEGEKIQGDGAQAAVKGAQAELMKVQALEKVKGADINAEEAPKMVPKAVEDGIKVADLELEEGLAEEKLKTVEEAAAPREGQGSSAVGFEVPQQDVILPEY
Experimental: (§1) The analysis was performed by ProQinase (Freiburg, Germany).

CAMKK1 = molecular target: T2, CAMKK1 (Homo sapiens, UniProt Q8N5S9)
T2 construct: purchased ProQinase (Freiburg, Germany)
Experimental: as §1

CDK20/CycH = molecular target: T3, CDK20/CycH (Homo sapiens, UniProt Q8IZL9)
T3 construct: purchased ProQinase (Freiburg, Germany)
T3 sequence (Q8IZL9 whole entry): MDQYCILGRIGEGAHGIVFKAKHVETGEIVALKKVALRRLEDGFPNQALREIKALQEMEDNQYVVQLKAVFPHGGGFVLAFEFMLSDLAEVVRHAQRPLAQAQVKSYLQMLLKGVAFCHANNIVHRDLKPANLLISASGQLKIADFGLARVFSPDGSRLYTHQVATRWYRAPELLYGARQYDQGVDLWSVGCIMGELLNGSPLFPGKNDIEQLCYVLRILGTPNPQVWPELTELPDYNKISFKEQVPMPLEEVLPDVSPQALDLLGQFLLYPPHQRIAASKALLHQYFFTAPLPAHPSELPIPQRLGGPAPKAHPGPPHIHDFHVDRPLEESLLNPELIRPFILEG
T3 sequence (P51946 whole entry partner): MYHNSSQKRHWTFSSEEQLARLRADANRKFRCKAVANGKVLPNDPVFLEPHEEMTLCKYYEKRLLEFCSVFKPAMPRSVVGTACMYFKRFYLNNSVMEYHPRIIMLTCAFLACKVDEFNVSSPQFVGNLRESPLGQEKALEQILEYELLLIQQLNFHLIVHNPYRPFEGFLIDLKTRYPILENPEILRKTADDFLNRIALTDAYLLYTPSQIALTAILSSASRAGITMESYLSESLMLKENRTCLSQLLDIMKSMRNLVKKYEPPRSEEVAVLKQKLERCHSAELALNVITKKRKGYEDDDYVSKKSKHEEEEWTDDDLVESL
Experimental: as §1

CDK4/CycD2 = molecular target: T4, CDK4/CycD2 (Homo sapiens, UniProt P11802)
T4 construct: purchased ProQinase (Freiburg, Germany)
Experimental: as §1

CLK3 = molecular target: T5, CLK3 (Homo sapiens, UniProt P49761)
T5 construct: purchased ProQinase (Freiburg, Germany)
T5 sequence (P49761 whole entry): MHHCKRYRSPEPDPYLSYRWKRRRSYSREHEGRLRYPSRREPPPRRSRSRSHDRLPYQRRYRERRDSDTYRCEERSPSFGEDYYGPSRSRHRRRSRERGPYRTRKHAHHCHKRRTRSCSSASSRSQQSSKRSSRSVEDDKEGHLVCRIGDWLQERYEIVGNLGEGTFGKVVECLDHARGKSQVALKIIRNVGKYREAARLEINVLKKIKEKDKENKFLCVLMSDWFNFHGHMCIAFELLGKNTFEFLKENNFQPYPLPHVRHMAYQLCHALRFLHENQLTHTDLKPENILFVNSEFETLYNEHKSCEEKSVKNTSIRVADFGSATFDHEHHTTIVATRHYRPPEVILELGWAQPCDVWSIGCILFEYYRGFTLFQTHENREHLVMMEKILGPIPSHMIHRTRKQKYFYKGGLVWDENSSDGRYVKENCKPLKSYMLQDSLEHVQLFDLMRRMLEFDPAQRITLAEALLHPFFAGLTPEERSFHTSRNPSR
Experimental: as §1

EPHA3 = molecular target: T6, EPHA3 (Homo sapiens, UniProt P29320)
T6 construct: purchased ProQinase (Freiburg, Germany)
T6 sequence (P29320 21-983): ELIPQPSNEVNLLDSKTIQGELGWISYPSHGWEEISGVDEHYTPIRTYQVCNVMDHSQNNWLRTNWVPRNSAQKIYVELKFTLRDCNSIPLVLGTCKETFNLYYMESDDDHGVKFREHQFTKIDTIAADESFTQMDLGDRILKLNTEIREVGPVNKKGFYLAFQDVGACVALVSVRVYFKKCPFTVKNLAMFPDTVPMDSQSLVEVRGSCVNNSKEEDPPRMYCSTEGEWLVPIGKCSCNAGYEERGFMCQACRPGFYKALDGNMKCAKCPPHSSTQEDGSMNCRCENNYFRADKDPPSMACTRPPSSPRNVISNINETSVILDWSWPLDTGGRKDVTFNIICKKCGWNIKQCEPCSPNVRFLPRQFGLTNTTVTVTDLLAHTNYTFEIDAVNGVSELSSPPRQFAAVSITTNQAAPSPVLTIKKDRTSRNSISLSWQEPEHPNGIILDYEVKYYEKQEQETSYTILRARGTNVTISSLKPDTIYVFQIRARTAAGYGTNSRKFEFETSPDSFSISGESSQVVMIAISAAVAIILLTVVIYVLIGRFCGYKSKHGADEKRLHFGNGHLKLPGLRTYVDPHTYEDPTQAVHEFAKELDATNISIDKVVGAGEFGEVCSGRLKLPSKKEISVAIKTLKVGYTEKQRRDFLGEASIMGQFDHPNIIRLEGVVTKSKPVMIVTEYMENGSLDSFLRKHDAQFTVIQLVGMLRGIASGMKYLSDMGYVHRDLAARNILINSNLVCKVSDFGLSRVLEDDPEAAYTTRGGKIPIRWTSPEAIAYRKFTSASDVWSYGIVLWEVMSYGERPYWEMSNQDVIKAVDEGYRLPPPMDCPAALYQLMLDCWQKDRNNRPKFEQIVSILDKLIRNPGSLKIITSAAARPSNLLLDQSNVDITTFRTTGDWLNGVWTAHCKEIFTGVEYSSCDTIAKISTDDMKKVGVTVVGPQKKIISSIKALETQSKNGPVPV
Experimental: as §1

PASK = molecular target: T7, PASK (Homo sapiens, UniProt Q96RG2)
T7 construct: purchased ProQinase (Freiburg, Germany)
Experimental: as §1

PRK1 = molecular target: T8, PRK1 (Homo sapiens, UniProt Q16512)
T8 construct: purchased ProQinase (Freiburg, Germany)
Experimental: as §1

ROS = molecular target: T9, ROS (Homo sapiens, UniProt P08922)
T9 construct: purchased ProQinase (Freiburg, Germany)
T9 sequence (P08922 28-2347): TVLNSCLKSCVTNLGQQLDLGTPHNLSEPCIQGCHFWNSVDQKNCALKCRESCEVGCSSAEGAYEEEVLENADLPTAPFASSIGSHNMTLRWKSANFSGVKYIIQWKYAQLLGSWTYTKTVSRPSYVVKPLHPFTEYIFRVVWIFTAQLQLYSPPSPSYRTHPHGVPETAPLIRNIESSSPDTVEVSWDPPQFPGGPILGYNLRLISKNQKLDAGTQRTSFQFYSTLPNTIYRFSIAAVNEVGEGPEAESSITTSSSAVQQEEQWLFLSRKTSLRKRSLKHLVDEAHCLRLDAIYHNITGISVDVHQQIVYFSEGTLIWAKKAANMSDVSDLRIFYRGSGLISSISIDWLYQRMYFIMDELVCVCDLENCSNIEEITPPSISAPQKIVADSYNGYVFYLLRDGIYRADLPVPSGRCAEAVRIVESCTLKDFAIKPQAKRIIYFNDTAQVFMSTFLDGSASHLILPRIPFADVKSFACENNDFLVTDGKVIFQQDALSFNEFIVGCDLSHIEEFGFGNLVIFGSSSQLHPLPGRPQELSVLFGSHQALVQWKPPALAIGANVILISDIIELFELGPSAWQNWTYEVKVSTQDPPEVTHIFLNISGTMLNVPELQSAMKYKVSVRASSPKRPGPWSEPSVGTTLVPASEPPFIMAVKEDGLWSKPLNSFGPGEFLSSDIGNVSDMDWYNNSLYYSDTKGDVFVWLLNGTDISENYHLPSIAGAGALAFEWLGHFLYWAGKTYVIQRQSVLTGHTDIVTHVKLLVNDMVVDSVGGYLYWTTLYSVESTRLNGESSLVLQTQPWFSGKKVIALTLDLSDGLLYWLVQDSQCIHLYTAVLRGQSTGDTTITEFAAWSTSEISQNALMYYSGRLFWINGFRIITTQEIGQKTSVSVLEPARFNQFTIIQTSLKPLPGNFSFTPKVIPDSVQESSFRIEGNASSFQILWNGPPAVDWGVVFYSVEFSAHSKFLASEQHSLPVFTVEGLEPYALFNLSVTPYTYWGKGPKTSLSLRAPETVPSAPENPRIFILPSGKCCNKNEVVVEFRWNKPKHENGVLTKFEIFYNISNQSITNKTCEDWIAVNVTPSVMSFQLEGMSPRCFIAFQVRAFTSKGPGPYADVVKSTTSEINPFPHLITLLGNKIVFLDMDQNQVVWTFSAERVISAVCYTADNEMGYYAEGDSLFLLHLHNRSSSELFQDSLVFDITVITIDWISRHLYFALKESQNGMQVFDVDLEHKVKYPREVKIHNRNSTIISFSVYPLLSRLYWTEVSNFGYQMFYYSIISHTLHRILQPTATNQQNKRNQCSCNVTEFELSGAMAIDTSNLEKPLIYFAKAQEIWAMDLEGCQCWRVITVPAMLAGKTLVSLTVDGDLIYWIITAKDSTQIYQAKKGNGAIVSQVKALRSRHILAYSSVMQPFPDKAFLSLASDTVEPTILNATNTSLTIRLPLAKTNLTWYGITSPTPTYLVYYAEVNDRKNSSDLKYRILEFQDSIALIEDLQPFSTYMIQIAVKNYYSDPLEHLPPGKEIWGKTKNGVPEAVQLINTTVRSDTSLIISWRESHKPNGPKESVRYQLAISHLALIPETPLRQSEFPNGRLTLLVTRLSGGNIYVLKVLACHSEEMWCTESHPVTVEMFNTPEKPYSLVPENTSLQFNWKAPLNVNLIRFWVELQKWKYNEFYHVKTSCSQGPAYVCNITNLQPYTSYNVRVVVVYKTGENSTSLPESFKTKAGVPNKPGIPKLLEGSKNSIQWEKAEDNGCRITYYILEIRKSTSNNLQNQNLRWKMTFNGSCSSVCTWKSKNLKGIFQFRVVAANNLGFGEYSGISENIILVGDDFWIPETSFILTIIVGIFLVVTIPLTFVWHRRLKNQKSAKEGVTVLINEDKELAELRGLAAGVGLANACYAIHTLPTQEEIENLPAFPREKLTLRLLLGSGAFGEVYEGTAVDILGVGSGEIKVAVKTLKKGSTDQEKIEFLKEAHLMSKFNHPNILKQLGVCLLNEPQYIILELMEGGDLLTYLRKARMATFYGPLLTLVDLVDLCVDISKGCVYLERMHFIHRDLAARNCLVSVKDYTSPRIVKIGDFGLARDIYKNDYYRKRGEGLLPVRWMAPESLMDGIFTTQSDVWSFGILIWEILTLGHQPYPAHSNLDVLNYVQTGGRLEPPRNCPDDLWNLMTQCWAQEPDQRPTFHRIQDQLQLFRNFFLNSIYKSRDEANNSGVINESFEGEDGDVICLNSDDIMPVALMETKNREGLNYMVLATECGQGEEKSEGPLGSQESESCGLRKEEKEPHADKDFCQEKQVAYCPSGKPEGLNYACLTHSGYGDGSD
Experimental: as §1

RPS6KA2 = molecular target: T10, RPS6KA2 (Homo sapiens, UniProt Q15349)
T10 construct: purchased ProQinase (Freiburg, Germany)
T10 sequence (Q15349 whole entry): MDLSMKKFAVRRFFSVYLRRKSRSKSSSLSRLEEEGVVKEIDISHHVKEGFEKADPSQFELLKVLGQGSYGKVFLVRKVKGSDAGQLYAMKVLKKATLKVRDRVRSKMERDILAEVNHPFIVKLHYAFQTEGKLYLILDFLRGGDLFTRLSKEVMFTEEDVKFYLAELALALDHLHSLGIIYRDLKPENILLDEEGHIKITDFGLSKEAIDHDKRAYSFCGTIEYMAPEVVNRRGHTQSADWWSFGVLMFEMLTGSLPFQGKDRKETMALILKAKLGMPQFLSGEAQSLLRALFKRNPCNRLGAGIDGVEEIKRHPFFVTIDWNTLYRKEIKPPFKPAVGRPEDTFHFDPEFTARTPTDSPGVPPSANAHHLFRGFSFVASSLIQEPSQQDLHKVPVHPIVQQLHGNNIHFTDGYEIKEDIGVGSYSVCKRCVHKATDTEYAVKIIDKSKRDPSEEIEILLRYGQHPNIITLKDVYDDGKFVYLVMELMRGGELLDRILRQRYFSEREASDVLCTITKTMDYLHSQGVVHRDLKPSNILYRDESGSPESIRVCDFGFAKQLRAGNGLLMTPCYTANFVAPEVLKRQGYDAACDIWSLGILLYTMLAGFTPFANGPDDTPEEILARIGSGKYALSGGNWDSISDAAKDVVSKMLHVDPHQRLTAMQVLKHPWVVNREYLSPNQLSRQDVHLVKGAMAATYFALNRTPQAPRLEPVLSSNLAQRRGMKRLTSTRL
Experimental: as §1

RPS6KA3 = molecular target: T11, RPS6KA3 (Homo sapiens, UniProt P51812)
T11 construct: purchased ProQinase (Freiburg, Germany)
T11 sequence (P51812 whole entry): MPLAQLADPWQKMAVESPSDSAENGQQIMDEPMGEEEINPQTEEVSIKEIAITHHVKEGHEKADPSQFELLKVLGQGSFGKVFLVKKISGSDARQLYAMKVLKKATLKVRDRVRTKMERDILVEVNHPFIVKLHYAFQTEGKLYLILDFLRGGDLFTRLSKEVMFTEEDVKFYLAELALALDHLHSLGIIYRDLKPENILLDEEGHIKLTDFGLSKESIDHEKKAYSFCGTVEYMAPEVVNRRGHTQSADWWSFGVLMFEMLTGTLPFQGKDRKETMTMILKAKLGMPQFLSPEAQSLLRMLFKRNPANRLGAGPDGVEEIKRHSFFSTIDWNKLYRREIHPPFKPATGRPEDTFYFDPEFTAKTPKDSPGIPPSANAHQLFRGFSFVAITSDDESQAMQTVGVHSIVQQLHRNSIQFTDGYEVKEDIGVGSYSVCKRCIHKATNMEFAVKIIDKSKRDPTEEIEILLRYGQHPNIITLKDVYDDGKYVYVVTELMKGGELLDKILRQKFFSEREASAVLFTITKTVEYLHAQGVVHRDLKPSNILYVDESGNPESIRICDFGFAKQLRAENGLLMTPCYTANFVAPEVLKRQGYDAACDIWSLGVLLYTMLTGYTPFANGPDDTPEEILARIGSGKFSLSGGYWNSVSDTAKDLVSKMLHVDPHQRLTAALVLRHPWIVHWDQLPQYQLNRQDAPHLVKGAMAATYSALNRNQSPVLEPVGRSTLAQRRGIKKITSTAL
Experimental: as §1

TEC = molecular target: T12, TEC (Homo sapiens, UniProt P42680)
T12 construct: purchased ProQinase (Freiburg, Germany)
T12 sequence (P42680 1-631): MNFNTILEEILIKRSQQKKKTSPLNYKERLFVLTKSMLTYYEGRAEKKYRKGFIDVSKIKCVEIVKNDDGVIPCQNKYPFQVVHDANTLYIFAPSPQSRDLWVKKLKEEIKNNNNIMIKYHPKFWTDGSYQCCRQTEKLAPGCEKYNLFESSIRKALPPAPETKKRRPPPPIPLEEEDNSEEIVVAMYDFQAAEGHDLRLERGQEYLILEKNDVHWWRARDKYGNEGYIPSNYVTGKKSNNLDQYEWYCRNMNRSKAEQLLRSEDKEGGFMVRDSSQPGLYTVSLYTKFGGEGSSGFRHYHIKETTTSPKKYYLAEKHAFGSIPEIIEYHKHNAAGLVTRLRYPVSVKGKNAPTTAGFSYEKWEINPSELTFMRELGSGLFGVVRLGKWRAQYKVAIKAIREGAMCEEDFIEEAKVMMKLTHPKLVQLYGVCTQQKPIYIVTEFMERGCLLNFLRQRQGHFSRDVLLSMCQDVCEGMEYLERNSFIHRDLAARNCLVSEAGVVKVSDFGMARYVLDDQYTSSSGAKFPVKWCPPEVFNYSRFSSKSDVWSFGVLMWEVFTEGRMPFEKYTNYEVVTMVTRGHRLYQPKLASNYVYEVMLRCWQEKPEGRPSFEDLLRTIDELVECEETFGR
Experimental: as §1

O=C(Cc1ccccc1)Nc1ccc(F)c(Nc2ccc3c(c2)CCCCC3=O)c1 [Compound 100]
Residual activity (CAMK4; 1.0E-05 M): 97 % of control | Residual activity (CAMK4; 1.0E-06 M): 102 % of control | Residual activity (CAMKK1; 1.0E-05 M): 80 % of control | Residual activity (CAMKK1; 1.0E-06 M): 78 % of control | Residual activity (CDK20/CycH; 1.0E-05 M): 98 % of control | Residual activity (CDK20/CycH; 1.0E-06 M): 103 % of control | Residual activity (CDK4/CycD2; 1.0E-05 M): 86 % of control | Residual activity (CDK4/CycD2; 1.0E-06 M): 94 % of control | Residual activity (CLK3; 1.0E-05 M): 114 % of control | Residual activity (CLK3; 1.0E-06 M): 130 % of control | Residual activity (EPHA3; 1.0E-05 M): 86 % of control | Residual activity (EPHA3; 1.0E-06 M): 96 % of control | Residual activity (PASK; 1.0E-05 M): 97 % of control | Residual activity (PASK; 1.0E-06 M): 107 % of control | Residual activity (PRK1; 1.0E-05 M): 101 % of control | Residual activity (PRK1; 1.0E-06 M): 112 % of control | Residual activity (ROS; 1.0E-05 M): 91 % of control | Residual activity (ROS; 1.0E-06 M): 99 % of control | Residual activity (RPS6KA2; 1.0E-05 M): 84 % of control | Residual activity (RPS6KA2; 1.0E-06 M): 95 % of control | Residual activity (RPS6KA3; 1.0E-05 M): 80 % of control | Residual activity (RPS6KA3; 1.0E-06 M): 97 % of control | Residual activity (TEC; 1.0E-05 M): 69 % of control | Residual activity (TEC; 1.0E-06 M): 88 % of control

O=C(Nc1ccc(F)c(Nc2ccc3c(c2)CCCCC3=O)c1)c1cccc(F)c1 [Compound 109]
Residual activity (CAMK4; 1.0E-05 M): 89 % of control | Residual activity (CAMK4; 1.0E-06 M): 97 % of control | Residual activity (CAMKK1; 1.0E-05 M): 75 % of control | Residual activity (CAMKK1; 1.0E-06 M): 77 % of control | Residual activity (CDK20/CycH; 1.0E-05 M): 121 % of control | Residual activity (CDK20/CycH; 1.0E-06 M): 110 % of control | Residual activity (CDK4/CycD2; 1.0E-05 M): 91 % of control | Residual activity (CDK4/CycD2; 1.0E-06 M): 94 % of control | Residual activity (CLK3; 1.0E-05 M): 105 % of control | Residual activity (CLK3; 1.0E-06 M): 110 % of control | Residual activity (EPHA3; 1.0E-05 M): 94 % of control | Residual activity (EPHA3; 1.0E-06 M): 92 % of control | Residual activity (PASK; 1.0E-05 M): 97 % of control | Residual activity (PASK; 1.0E-06 M): 95 % of control | Residual activity (PRK1; 1.0E-05 M): 101 % of control | Residual activity (PRK1; 1.0E-06 M): 94 % of control | Residual activity (ROS; 1.0E-05 M): 85 % of control | Residual activity (ROS; 1.0E-06 M): 97 % of control | Residual activity (RPS6KA2; 1.0E-05 M): 75 % of control | Residual activity (RPS6KA2; 1.0E-06 M): 95 % of control | Residual activity (RPS6KA3; 1.0E-05 M): 84 % of control | Residual activity (RPS6KA3; 1.0E-06 M): 90 % of control | Residual activity (TEC; 1.0E-05 M): 80 % of control | Residual activity (TEC; 1.0E-06 M): 94 % of control
